For assay [1] the following is noted: cited from earlier work.
The subject of a further assay is LH secretion. The following applies: cited from earlier work.
Assay [2] relates to Proestrous female Sprague-Dawley rats. Kind of assay: Ovulation induction in Nembutal-treated proestrous rats. In kind it is in vivo, rat. The following applies: for Dose giving ovulation inducing activity in 100 percent of the rats: via the jugular vein, Nembutal 50 mg/kg i.p. The protocol:
The ovulation-induction properties of the nonapeptides of this invention was determined as follows:
Proestrous female Sprague-Dawley rats were injected intraperitoneally with a hypnotic dose of Nembutal® (50 mg/kg) at 1:30 P.M. Between 1:40 and 1:50 P.M. the rats received the test material via the jugular vein. The following morning the animals were sacraficed and the fallopian tubes examined for ova under a dissecting microscope. […] Thus, in its ovulation induction, the preferred compound of this invention, [D-2-(cyclohexyl)Gly^6, Pro-NHC2 H5^9 ]LHRH is about 10 times as active as [D-Ala^6, Pro-NHC2 H5^9 ]LH-RH and 30 times as active as LH-RH.

Assay [3] has as its system Mature, female, Sprague-Dawley rats. Description: Anti-gravidity (claudogenic/interceptive) test in mated rats. The following applies: rat; for Claudogen (D 1-7), Minimal Effective Dose (100% effect): days 1-7 of pregnancy; for Interceptive (D 7-12), Minimal Effective Dose (100% effect): days 7-12 of pregnancy. In kind it is in vivo.
The subject of assay [4] is Proestrous female Sprague-Dawley rats. Description: Ovulation induction in Nembutal-treated proestrous rats. In kind it is in vivo. Particulars: P.O.; rat.

With des-Gly^10 -Pro-NHC2 H5 -LH-RH, in assay [1] (Fujino et al. 1972), the “Activity relative to LH-RH” value is on record as “three to five times as active as LH-RH”.

In the case of D-Ala^6, (N^α -Me)Leu^7 LH-RH, the “Potency in stimulating the secretion of LH, percent of LH-RH's potency” value with LH secretion (Ling et al. 1975) is given as 560%.

Turning to “[D-Ala^6, des-Gly-NH2^10, Proethylamide]LH-RH [reference compound]”, in assay [2], the “Dose giving ovulation inducing activity in 100 percent of the rats” value is on record as “about 1 μg per rat”. The “Potency in stimulating LH secretion relative to D-Ala^6 -LH-RH” value in the assay on LH secretion (Coy et al. 1974) was “about twice”.

As for `CCNC(=O)[C@@H]1CCCN1C(=O)[C@H](CCCNC(=N)N)NC(=O)[C@H](CC(C)C)NC(=O)[C@H](NC(=O)[C@H](Cc1ccc(O)cc1)NC(=O)[C@H](CO)NC(=O)[C@H](Cc1c[nH]c2ccccc12)NC(=O)[C@H](Cc1c[nH]cn1)NC(=O)[C@@H]1CCC(=O)N1)C1CCCCC1` [Example 5, L-pyroglutamyl-L-histidyl-L-tryptophyl-L-seryl-L-tyrosyl-D-2-(cyclohexyl)glycyl-L-leucyl-L-arginyl-L-prolinethylamide], the “Ovulation induction, Minimal Effective Dose (100% effect)” value in assay [2] (I.V., rat) is reported as 0.10 μ/rat; in assay [4] it was ~ 10 μ/rat. Also, the “Ovulation induction activity relative to LH-RH” value in assay [2] (rat) is listed as approximately 30 times. Further, in assay [2] (rat), the “Ovulation induction activity relative to [D-Ala^6, Pro-NHC2 H5^9 ]LH-RH” value is listed as “about 10 times”. Besides, in assay [2], the “Dose giving ovulation inducing activity in 100 percent of the rats” value came to 0.1 μg per rat. Moreover, the “Claudogen (D 1-7), Minimal Effective Dose (100% effect)” value is given as 200 μ/rat in assay [3] (P.O.) and ~ 1.0 μ/rat in assay [3] (S.C.). The “Interceptive (D 7-12), Minimal Effective Dose (100% effect)” value in assay [3] (P.O.) is on record as more than 1000 μ/rat; in assay [3] (S.C.), ~ 10 μ/rat.

Regarding `CCNC(=O)[C@@H]1CCCN1C(=O)[C@H](CCCNC(=N)N)NC(=O)[C@H](CC(C)C)N(C)C(=O)[C@H](NC(=O)[C@H](Cc1ccc(O)cc1)NC(=O)[C@H](CO)NC(=O)[C@H](Cc1c[nH]c2ccccc12)NC(=O)[C@H](Cc1c[nH]cn1)NC(=O)[C@@H]1CCC(=O)N1)C1CCCCC1` [Example 6], the “Ovulation induction, Minimal Effective Dose (100% effect)” value in assay [2] (i.v., rat) was 1.0 μg/rat; in assay [4], more than 10 μg/rat. Also, the “Dose giving ovulation inducing activity in 100 percent of the rats” value in assay [2] stood at 1.0 μg per rat. For the same compound, the “Claudogen (D 1-7), Minimal Effective Dose (100% effect)” value in assay [3] (P.O.) is reported as more than 1000 μg/rat; in assay [3] (S.C.), 10 μg/rat. Also, the “Interceptive (D 7-12), Minimal Effective Dose (100% effect)” value in assay [3] (P.O.) is given as more than 1000 μg/rat; in assay [3] (S.C.), ~ 10 μg/rat.

“LH-RH (QHWSYGLRPG; Gonadoliberin-1; UniProt P01148 24-33, looked up) [native hormone used as comparison in ovulation induction, reference compound]”: in assay [2], the “Dose giving ovulation inducing activity in 100 percent of the rats” value is given as “about 3 μg per rat”.

For the compound D-Ala^6 -LRH, in assay [1] (Monahan et al. 1973), the “Potency relative to LH-RH” value is listed as “more potent than LH-RH”.

The values above are taken from US4143133A, “Claudogenic-interceptive nonapeptides” (American Home Products Corporation, priority 1977, dated 1979).
